Test in all cases: Bliss excess, mean over the matrix (fraction); higher = more synergy
For experiment [1], the system named is Becker (Low Grade Glioma). Put shortly: (§1)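 Cell lines grown in DMEM/F12 or RPMI with 10% FBS were plated in 1536-well plates and held 24 hours at 37°C, 5% CO2 before 72 hours of exposure to two-drug dose matrices, with DMSO typically at 0.2%. CellTiter-Glo 2.0 luminescence gave viability, which was converted to inhibition. Vehicle wells were set to 0 and blank wells to 1. Combination Emax is the second-highest inhibition in the matrix, and Bliss excess is the observed combination effect minus the expected EA + EB − EA·EB, where EA and EB are the single-agent effects.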

In experiment [2] the test system is LAMA-84 (Chronic Myelogenous Leukemia). Put shortly:
as §1

Experiment [3] relates to OVTOKO (Ovarian Carcinoma). Summed up: as §1
Experiment [4] deals with AsPC-1 (Pancreatic Carcinoma). Put shortly:
as §1

From the supplement of paper PMC11061612 come the findings set out here.

Each structure is given as a SMILES string.

As to `Cc1cc2ncnn2cc1Nc1ncc2c(n1)n(C1CCOCC1)c(=O)n2C` [AZD7648] + CCN(CCO)CCCOc1ccc2c(Nc3cc(CC(=O)Nc4cccc(F)c4)[nH]n3)ncnc2c1 [AZD2811] (first compound max 10 µM, 7x7, partner max 1 µM), the Bliss excess in experiment [1] was 0.0154; in experiment [2] it was 0.115; in experiment [3] it was -0.0011; in experiment [4], -0.0312.
On to `C=CCn1c(=O)c2cnc(Nc3ccc(N4CCN(C)CC4)cc3)nc2n1-c1cccc(C(C)(C)O)n1` [AZD1775] + C[C@@H]1COCCN1C2=NC(=NC(=C2)C3(CC3)[S@](=N)(=O)C)C4=C5C=CNC5=NC=C4 [AZD6738] (first compound max 1 µM, partner max 10 µM), for which the Bliss excess in experiment [1] is 0.0428; in experiment [2], 0.0054; in experiment [3], -0.0308; in experiment [4], -0.0571.
The like results for `CN(C)CCCOc1ccc(-c2ccc3ncc4c(c3c2)n(C2CCOCC2)c(=O)n4C)cn1` [AZD0156] + C[C@@H]1COCCN1C2=NC(=NC(=C2)C3(CC3)[S@](=N)(=O)C)C4=C5C=CNC5=NC=C4 [AZD6738] (first compound max 1 µM, 7x7, partner max 10 µM) were, in that order, -0.0248, 0.0048, 0.0039 and -0.0184.
In the case of `CC1(C)CCC(CN2CCN(c3ccc(C(=O)NS(=O)(=O)c4ccc(NCC5CCOCC5)c([N+](=O)[O-])c4)c(Oc4cnc5[nH]ccc5c4)c3)CC2)=C(c2ccc(Cl)cc2)C1` [Venetoclax] + C[C@@H](Nc1cc(F)cc(F)c1)c1cc(C(=O)N(C)C)cc2c(=O)cc(N3CCOCC3)oc12 [AZD8186] (first compound max 1 µM, 7x7, partner max 3 µM), the Bliss excess in experiment [1] was 0.0404; in experiment [2], -0.0006; in experiment [3], -0.0535; in experiment [4], -0.0817.
For the molecule `CCN(CCO)CCCOc1ccc2c(Nc3cc(CC(=O)Nc4cccc(F)c4)[nH]n3)ncnc2c1` [AZD2811] + C=CCn1c(=O)c2cnc(Nc3ccc(N4CCN(C)CC4)cc3)nc2n1-c1cccc(C(C)(C)O)n1 [AZD1775] (first compound max 1 µM, partner max 1 µM), the Bliss excess in experiment [1] was -0.0465; in experiment [2], 0.0026; in experiment [3] it was -0.0353; in experiment [4], -0.0738.
Regarding `CCc1c2c(nc3ccc(O)cc13)-c1cc3c(c(=O)n1C2)COC(=O)[C@]3(O)CC` [SN-38] + CN(C)CCCOc1ccc(-c2ccc3ncc4c(c3c2)n(C2CCOCC2)c(=O)n4C)cn1 [AZD0156] (first compound max 0.3 µM, 7x7, partner max 1 µM), the Bliss excess in experiment [1] is 0.0387; in experiment [2], 0.08; in experiment [3], -0.0523; in experiment [4], -0.029.
For `Cc1c2c(nn1C)CSCc1cc(n(C)n1)CSc1cc(c3ccccc3c1)OCCCc1c(C(=O)O)n(C)c3c-2c(Cl)ccc13` [AZD5991] + Cn1cnc2c(F)c(Nc3ccc(Br)cc3Cl)c(C(=O)NOCCO)cc21 [Selumetinib] (first compound max 1 µM, 7x7, partner max 3 µM), the Bliss excess is -0.0092 in experiment [1], 0.102 in experiment [2], -0.039 in experiment [3] and -0.0325 in experiment [4].
Turning to `COc1cccc(OCCCN)c1-c1cc(Nc2cnc(C#N)cn2)n[nH]1` [Prexasertib] + Cc1cc2ncnn2cc1Nc1ncc2c(n1)n(C1CCOCC1)c(=O)n2C [AZD7648] (first compound max 1 µM, 7x7, partner max 10 µM), the Bliss excess was -0.0081 in experiment [1], -0.0208 in experiment [2], -0.0079 in experiment [3] and -0.0242 in experiment [4].
Take `Cc1c2c(nn1C)CSCc1cc(n(C)n1)CSc1cc(c3ccccc3c1)OCCCc1c(C(=O)O)n(C)c3c-2c(Cl)ccc13` [AZD5991] + CCN(CCO)CCCOc1ccc2c(Nc3cc(CC(=O)Nc4cccc(F)c4)[nH]n3)ncnc2c1 [AZD2811] (first compound max 1 µM, 7x7, partner max 1 µM): the Bliss excess in experiment [1] is -0.0165; in experiment [2], 0.128; in experiment [3], 0.0153; in experiment [4], -0.0331.
Turning to `C=CCn1c(=O)c2cnc(Nc3ccc(N4CCN(C)CC4)cc3)nc2n1-c1cccc(C(C)(C)O)n1` [AZD1775] + O=C(c1cc(Cc2n[nH]c(=O)c3ccccc23)ccc1F)N1CCN(C(=O)C2CC2)CC1 [Olaparib] (first compound max 1 µM, partner max 10 µM), the Bliss excess in experiment [1] is -0.0254; in experiment [2] it was -0.0086; in experiment [3], -0.0514; in experiment [4], 0.0039.
With `Cc1c2c(nn1C)CSCc1cc(n(C)n1)CSc1cc(c3ccccc3c1)OCCCc1c(C(=O)O)n(C)c3c-2c(Cl)ccc13` [AZD5991] + Cc1cc2ncnn2cc1Nc1ncc2c(n1)n(C1CCOCC1)c(=O)n2C [AZD7648] (first compound max 1 µM, 7x7, partner max 10 µM), the Bliss excess in experiment [1] is 0.0005; in experiment [2], -0.01; in experiment [3], -0.0238; in experiment [4], -0.0517.
Regarding `CN(C)CCCOc1ccc(-c2ccc3ncc4c(c3c2)n(C2CCOCC2)c(=O)n4C)cn1` [AZD0156] + CCN(CCO)CCCOc1ccc2c(Nc3cc(CC(=O)Nc4cccc(F)c4)[nH]n3)ncnc2c1 [AZD2811] (first compound max 1 µM, 7x7, partner max 1 µM), the Bliss excess in experiment [1] was -0.0293; in experiment [2], -0.021; in experiment [3], -0.0337; in experiment [4], -0.0461.
With `COc1cccc2c1C(=O)c1c(O)c3c(c(O)c1C2=O)C[C@@](O)(C(=O)CO)C[C@@H]3O[C@H]1C[C@H](N)[C@H](O)[C@H](C)O1` [Doxorubicin] + Cc1cc2ncnn2cc1Nc1ncc2c(n1)n(C1CCOCC1)c(=O)n2C [AZD7648] (first compound max 1 µM, 7x7, partner max 10 µM), the Bliss excess is 0.0406 in experiment [1], 0.121 in experiment [2], -0.0578 in experiment [3] and -0.033 in experiment [4].
For `Cc1c2c(nn1C)CSCc1cc(n(C)n1)CSc1cc(c3ccccc3c1)OCCCc1c(C(=O)O)n(C)c3c-2c(Cl)ccc13` [AZD5991] + C1CN(CCC1(C(=O)N[C@@H](CCO)C2=CC=C(C=C2)Cl)N)C3=NC=NC4=C3C=CN4 [Capivasertib] (first compound max 1 µM, 7x7, partner max 3 µM) the same measures were -0.0169, 0.0007, -0.0287 and -0.0881.
For `CC1(C)CCC(CN2CCN(c3ccc(C(=O)NS(=O)(=O)c4ccc(NCC5CCOCC5)c([N+](=O)[O-])c4)c(Oc4cnc5[nH]ccc5c4)c3)CC2)=C(c2ccc(Cl)cc2)C1` [Venetoclax] + COc1cc(Nc2ncc3c(n2)-c2ccc(Cl)cc2C(c2c(F)cccc2OC)=NC3)ccc1C(=O)O [Alisertib] (first compound max 1 µM, 7x7, partner max 10 µM) the same measures were 0.0786, -0.0447, -0.0508 and -0.0701.
Take `CC(=O)Nc1cccc(-n2c(=O)n(C3CC3)c(=O)c3c(Nc4ccc(I)cc4F)n(C)c(=O)c(C)c32)c1` [Trametinib] + Cc1nc(-c2cn3c(n2)-c2ccc(-c4cnn(C(C)(C)C(N)=O)c4)cc2OCC3)n(C(C)C)n1 [Taselisib] (first compound max 1 µM, 7x7, partner max 10 µM): the Bliss excess in experiment [1] is 0.121; in experiment [2], 0.0537; in experiment [3], 0.0659; in experiment [4], 0.0654.
For `CN(CCO)CC[C@H](CSc1ccccc1)Nc1ccc(S(=O)(=O)NC(=O)c2ccc(N3CCC([C@@H](O)c4ccccc4-c4ccc(Cl)cc4)CC3)cc2)cc1S(=O)(=O)C(F)(F)F` [AZD4320] + Cn1cnc2c(F)c(Nc3ccc(Br)cc3Cl)c(C(=O)NOCCO)cc21 [Selumetinib] (first compound max 1 µM, 7x7, partner max 3 µM) the same measures were 0.0084, 0.0207, 0.0554 and 0.0314.
Regarding `COc1cccc(OCCCN)c1-c1cc(Nc2cnc(C#N)cn2)n[nH]1` [Prexasertib] + CN(C)CCCOc1ccc(-c2ccc3ncc4c(c3c2)n(C2CCOCC2)c(=O)n4C)cn1 [AZD0156] (first compound max 1 µM, 7x7, partner max 1 µM), the Bliss excess is -0.0203 in experiment [1], -0.0219 in experiment [2], 0.0594 in experiment [3] and 0.0303 in experiment [4].
In the case of `Cc1cc2ncnn2cc1Nc1ncc2c(n1)n(C1CCOCC1)c(=O)n2C` [AZD7648] + CN(C)CCCOc1ccc(-c2ccc3ncc4c(c3c2)n(C2CCOCC2)c(=O)n4C)cn1 [AZD0156] (first compound max 10 µM, 7x7, partner max 1 µM), the Bliss excess in experiment [1] was 0.0066; in experiment [2], -0.0024; in experiment [3], -0.0537; in experiment [4] it was -0.0291.
As to `CN(CCO)CC[C@H](CSc1ccccc1)Nc1ccc(S(=O)(=O)NC(=O)c2ccc(N3CCC([C@@H](O)c4ccccc4-c4ccc(Cl)cc4)CC3)cc2)cc1S(=O)(=O)C(F)(F)F` [AZD4320] + C1CN(CCC1(C(=O)N[C@@H](CCO)C2=CC=C(C=C2)Cl)N)C3=NC=NC4=C3C=CN4 [Capivasertib] (first compound max 1 µM, 7x7, partner max 3 µM), the Bliss excess in experiment [1] was -0.0355; in experiment [2], -0.0418; in experiment [3] it was -0.0381; in experiment [4], -0.0665.
Turning to `Cc1cc2ncnn2cc1Nc1ncc2c(n1)n(C1CCOCC1)c(=O)n2C` [AZD7648] + C=CCn1c(=O)c2cnc(Nc3ccc(N4CCN(C)CC4)cc3)nc2n1-c1cccc(C(C)(C)O)n1 [AZD1775] (first compound max 10 µM, partner max 1 µM), the Bliss excess in experiment [1] was -0.0269; in experiment [2], 0.046; in experiment [3], 0.0188; in experiment [4], 0.0558.
Regarding `Cc1cc2ncnn2cc1Nc1ncc2c(n1)n(C1CCOCC1)c(=O)n2C` [AZD7648] + O=C(c1cc(Cc2n[nH]c(=O)c3ccccc23)ccc1F)N1CCN(C(=O)C2CC2)CC1 [Olaparib] (first compound max 10 µM, 7x7, partner max 10 µM), the Bliss excess is -0.0281 in experiment [1], -0.0044 in experiment [2], -0.0433 in experiment [3] and -0.0567 in experiment [4].
Consider `CC1(C)CCC(CN2CCN(c3ccc(C(=O)NS(=O)(=O)c4ccc(NCC5CCOCC5)c([N+](=O)[O-])c4)c(Oc4cnc5[nH]ccc5c4)c3)CC2)=C(c2ccc(Cl)cc2)C1` [Venetoclax] + C1CN(CCC1(C(=O)N[C@@H](CCO)C2=CC=C(C=C2)Cl)N)C3=NC=NC4=C3C=CN4 [Capivasertib] (first compound max 1 µM, 7x7, partner max 3 µM), for which the Bliss excess is 0.0046 in experiment [1], -0.0498 in experiment [2], -0.0546 in experiment [3] and -0.088 in experiment [4].
Consider `CC1(C)CCC(CN2CCN(c3ccc(C(=O)NS(=O)(=O)c4ccc(NCC5CCOCC5)c([N+](=O)[O-])c4)c(Oc4cnc5[nH]ccc5c4)c3)CC2)=C(c2ccc(Cl)cc2)C1` [Venetoclax] + Cn1cnc2c(F)c(Nc3ccc(Br)cc3Cl)c(C(=O)NOCCO)cc21 [Selumetinib] (first compound max 1 µM, 7x7, partner max 3 µM), for which the Bliss excess was -0.008 in experiment [1], -0.0157 in experiment [2], -0.0544 in experiment [3] and -0.0748 in experiment [4].
As for `CN(CCO)CC[C@H](CSc1ccccc1)Nc1ccc(S(=O)(=O)NC(=O)c2ccc(N3CCC([C@@H](O)c4ccccc4-c4ccc(Cl)cc4)CC3)cc2)cc1S(=O)(=O)C(F)(F)F` [AZD4320] + CN(C)CCCOc1ccc(-c2ccc3ncc4c(c3c2)n(C2CCOCC2)c(=O)n4C)cn1 [AZD0156] (first compound max 1 µM, 7x7, partner max 1 µM), the Bliss excess in experiment [1] was -0.035; in experiment [2], -0.0089; in experiment [3], -0.0217; in experiment [4], -0.0506.
With `Cc1cc2ncnn2cc1Nc1ncc2c(n1)n(C1CCOCC1)c(=O)n2C` [AZD7648] + C[C@@H]1COCCN1C2=NC(=NC(=C2)C3(CC3)[S@](=N)(=O)C)C4=C5C=CNC5=NC=C4 [AZD6738] (first compound max 10 µM, 7x7, partner max 10 µM), the Bliss excess is -0.0207 in experiment [1], -0.0284 in experiment [2], 0.0118 in experiment [3] and 0.0133 in experiment [4].
